Results as given in US10413505B1, “Pharmaceutical compositions and methods of using the same” (priority 2017, dated 2019).
Where “and” joins values, the source holds several entries; their conditions need not be identical. Identical values can stand only once.

Legend:
[1] = Example 3 urinary pharmacokinetics, normal hepatic function vs hepatic impairment; type: in vivo, human; details: for Urine Recovery as % of Dose, Geomean / Urine Recovery as % of Dose, Mean: 0-32 h, single intranasal dose; for CLr Geomean / CLr Mean: Table 26
Procedure: Urine was collected prior to dosing and from 0-2, 2-4, 4-8, 8-12, 12-24, and 24-32 hours after beginning of dose application. […] Urinary pharmacokinetic parameters included total urinary recovery (μg), urinary recovery as a percentage of dose, and CLr.

[2] = Example 3 plasma pharmacokinetics, normal hepatic function vs hepatic impairment; details: for AUC0→t (Geometric mean) / AUC0→t (Max) / AUC0→t (Mean) / AUC0→t (Median) / AUC0→t (Min) / AUC0→∞ (Geometric mean) / AUC0→∞ (Max) / AUC0→∞ (Mean) / AUC0→∞ (Median) / AUC0→∞ (Min) / Clast (Geometric mean) / Clast (Max) / Clast (Mean) / Clast (Median) / Clast (Min) / Cmax (Geometric mean) / Cmax (Max) / Cmax (Mean) / Cmax (Median) / Cmax (Min) / Tlast (Geometric mean) / Tlast (Max) / Tlast (Mean) / Tlast (Median) / Tlast (Min) / Tmax (Geometric mean) / Tmax (Max) / Tmax (Mean) / Tmax (Median) / Tmax (Min) / t1/2 (Geometric mean) / t1/2 (Max) / t1/2 (Mean) / t1/2 (Median) / t1/2 (Min): single intranasal 160 mg cocaine HCl, plasma
[3] = Example 2 plasma pharmacokinetics, normal renal function vs severe renal impairment
[4] = normal hepatic function, single intranasal 160 mg cocaine HCl
[5] = subjects with hepatic impairment
[6] = subjects with hepatic impairment, 32 hours post administration
[7] = subjects with hepatic impairment, Table 30
[8] = subjects with normal hepatic function
[9] = subjects with normal hepatic function, Table 29
[10] = normal renal function, single intranasal 160 mg cocaine HCl, plasma
[11] = severe renal impairment, single intranasal 160 mg cocaine HCl, plasma

CN1[C@H]2CC[C@@H]1[C@@H](C(=O)O)[C@@H](OC(=O)c1ccccc1)C2 [BE, benzoylecgonine]
Urine Recovery as % of Dose, Geomean ([1]; Impaired hepatic function): 2.74 % of Dose | Urine Recovery as % of Dose, Mean ([1]; Impaired hepatic function): 3.30 % of Dose | CLr Geomean ([1]; Impaired hepatic function): 2.59 L/h | CLr Mean ([1]; Impaired hepatic function): 2.90 L/h | Urine Recovery as % of Dose, Geomean ([1]; Normal hepatic function): 1.42 % of Dose | Urine Recovery as % of Dose, Mean ([1]; Normal hepatic function): 1.73 % of Dose | CLr Geomean ([1]; Normal hepatic function): 3.96 L/h | CLr Mean ([1]; Normal hepatic function): 4.30 L/h | 0-32 h Urinary Recovery (geometric mean) [1, 4]: 1928.3 µg | 0-32 h Urinary Recovery (mean) [1, 4]: 2359.75 µg | 0-32 h Urinary Recovery (median) [1, 4]: 2098.9 µg | Renal Clearance, geometric mean [1, 5]: 43.11 mL/min | Renal Clearance, mean [1, 5]: 48.27 mL/min | Renal Clearance, median [1, 5]: 47.80 mL/min | 0-32 h Urinary Recovery (geometric mean) [1, 6]: 3735.6 µg | 0-32 h Urinary Recovery (mean) [1, 6]: 4500 µg | 0-32 h Urinary Recovery (median) [1, 6]: 3283.7 µg | Renal Clearance, geometric mean [1, 7]: 43.11 mL/min | Renal Clearance, mean [1, 7]: 48.273 mL/min | Renal Clearance, median [1, 7]: 47.8 mL/min | Renal Clearance, geometric mean [1, 8]: 65.948 mL/min | Renal Clearance, mean [1, 8]: 71.585 mL/min | Renal Clearance, median [1, 8]: 58.237 mL/min | Renal Clearance, geometric mean [1, 9]: 65.95 mL/min | Renal Clearance, mean [1, 9]: 71.585 mL/min | Renal Clearance, median [1, 9]: 58.23 mL/min | AUClast, times higher than normal subjects ([2]; Grade B hepatic impairment): approximately 2.4 times | AUClast, percent increased vs normal ([2]; Grade C hepatic impairment): 12% | AUC0→t (Geometric mean) ([2]; hepatic impairment): 1235 ng·h/mL | AUC0→t (Max) ([2]; hepatic impairment): 3356 ng·h/mL | AUC0→t (Mean) ([2]; hepatic impairment): 1402 ng·h/mL | AUC0→t (Median) ([2]; hepatic impairment): 1190 ng·h/mL | AUC0→t (Min) ([2]; hepatic impairment): 606 ng·h/mL | AUC0→∞ (Geometric mean) ([2]; hepatic impairment): 1513 ng·h/mL | AUC0→∞ (Max) ([2]; hepatic impairment): 3532 ng·h/mL | AUC0→∞ (Mean) ([2]; hepatic impairment): 1724 ng·h/mL | AUC0→∞ (Median) ([2]; hepatic impairment): 1448 ng·h/mL | AUC0→∞ (Min) ([2]; hepatic impairment): 647 ng·h/mL | Clast (Geometric mean) ([2]; hepatic impairment): 14.3 ng/mL | Clast (Max) ([2]; hepatic impairment): 42.6 ng/mL | Clast (Mean) ([2]; hepatic impairment): 17.6 ng/mL | Clast (Median) ([2]; hepatic impairment): 16.6 ng/mL | Clast (Min) ([2]; hepatic impairment): 3.33 ng/mL | Cmax (Geometric mean) ([2]; hepatic impairment): 67.1 ng/mL | Cmax (Max) ([2]; hepatic impairment): 248 ng/mL | Cmax (Mean) ([2]; hepatic impairment): 81.2 ng/mL | Cmax (Median) ([2]; hepatic impairment): 67.8 ng/mL | Cmax (Min) ([2]; hepatic impairment): 27.4 ng/mL | Tlast (Geometric mean) ([2]; hepatic impairment): 32.0 h | Tlast (Max) ([2]; hepatic impairment): 32.0 h | Tlast (Mean) ([2]; hepatic impairment): 32.0 h | Tlast (Median) ([2]; hepatic impairment): 32.0 h | Tlast (Min) ([2]; hepatic impairment): 1920 min | Tmax (Geometric mean) ([2]; hepatic impairment): 6.95 h | Tmax (Max) ([2]; hepatic impairment): 12.0 h | Tmax (Mean) ([2]; hepatic impairment): 7.50 h | Tmax (Median) ([2]; hepatic impairment): 7.00 h | Tmax (Min) ([2]; hepatic impairment): 240 min | t1/2 (Geometric mean) ([2]; hepatic impairment): 12.3 h | t1/2 (Max) ([2]; hepatic impairment): 31.0 h | t1/2 (Mean) ([2]; hepatic impairment): 14.0 h | t1/2 (Median) ([2]; hepatic impairment): 12.1 h | t1/2 (Min) ([2]; hepatic impairment): 399 min | AUC0→t (Geometric mean) ([2]; normal hepatic function): 603 ng·h/mL | AUC0→t (Max) ([2]; normal hepatic function): 2969 ng·h/mL | AUC0→t (Mean) ([2]; normal hepatic function): 784 ng·h/mL | AUC0→t (Median) ([2]; normal hepatic function): 523 ng·h/mL | AUC0→t (Min) ([2]; normal hepatic function): 144 ng·h/mL | AUC0→∞ (Geometric mean) ([2]; normal hepatic function): 667 ng·h/mL | AUC0→∞ (Max) ([2]; normal hepatic function): 3446 ng·h/mL | AUC0→∞ (Mean) ([2]; normal hepatic function): 869 ng·h/mL | AUC0→∞ (Median) ([2]; normal hepatic function): 568 ng·h/mL | AUC0→∞ (Min) ([2]; normal hepatic function): 182 ng·h/mL | Clast (Geometric mean) ([2]; normal hepatic function): 4.33 ng/mL | Clast (Max) ([2]; normal hepatic function): 31.6 ng/mL | Clast (Mean) ([2]; normal hepatic function): 6.17 ng/mL | Clast (Median) ([2]; normal hepatic function): 3.71 ng/mL | Clast (Min) ([2]; normal hepatic function): 2.02 ng/mL | Cmax (Geometric mean) ([2]; normal hepatic function): 43.7 ng/mL | Cmax (Max) ([2]; normal hepatic function): 171 ng/mL | Cmax (Mean) ([2]; normal hepatic function): 57.5 ng/mL | Cmax (Median) ([2]; normal hepatic function): 35.5 ng/mL | Cmax (Min) ([2]; normal hepatic function): 7.03 ng/mL | Tlast (Geometric mean) ([2]; normal hepatic function): 32.0 h | Tlast (Max) ([2]; normal hepatic function): 32.0 h | Tlast (Mean) ([2]; normal hepatic function): 32.0 h | Tlast (Median) ([2]; normal hepatic function): 32.0 h | Tlast (Min) ([2]; normal hepatic function): 1920 min | Tmax (Geometric mean) ([2]; normal hepatic function): 1.96 h | Tmax (Max) ([2]; normal hepatic function): 8.00 h | Tmax (Mean) ([2]; normal hepatic function): 2.38 h | Tmax (Median) ([2]; normal hepatic function): 1.63 h | Tmax (Min) ([2]; normal hepatic function): 60 min | t1/2 (Geometric mean) ([2]; normal hepatic function): 9.00 h | t1/2 (Max) ([2]; normal hepatic function): 13.1 h | t1/2 (Mean) ([2]; normal hepatic function): 9.16 h | t1/2 (Median) ([2]; normal hepatic function): 8.91 h | t1/2 (Min) ([2]; normal hepatic function): 398 min | AUC0→t (Geometric mean) [3, 10]: 589.5 ng·h/mL | AUC0→t (Max) [3, 10]: 2126 ng·h/mL | AUC0→t (Mean) [3, 10]: 762.1 ng·h/mL | AUC0→t (Median) [3, 10]: 616 ng·h/mL | AUC0→t (Min) [3, 10]: 167.4 ng·h/mL | AUC0→∞ (Geometric mean) [3, 10]: 639.2 ng·h/mL | AUC0→∞ (Max) [3, 10]: 2284 ng·h/mL | AUC0→∞ (Mean) [3, 10]: 823.8 ng·h/mL | AUC0→∞ (Median) [3, 10]: 676 ng·h/mL | AUC0→∞ (Min) [3, 10]: 166.1 ng·h/mL | Clast (Geometric mean) [3, 10]: 4 ng/mL and 3.96 ng/mL | Clast (Max) [3, 10]: 13.60 ng/mL | Clast (Mean) [3, 10]: 5.08 ng/mL | Clast (Median) [3, 10]: 4.34 ng/mL | Clast (Min) [3, 10]: 1.32 ng/mL | Cmax (Geometric mean) [3, 10]: 40.9 ng/mL | Cmax (Max) [3, 10]: 158.0 ng/mL | Cmax (Mean) [3, 10]: 55.7 ng/mL | Cmax (Median) [3, 10]: 42.1 ng/mL | Cmax (Min) [3, 10]: 9.0 ng/mL | Tlast (Geometric mean) [3, 10]: 32.0 h | Tlast (Max) [3, 10]: 32.0 h | Tlast (Mean) [3, 10]: 32.0 h | Tlast (Median) [3, 10]: 32.0 h | Tlast (Min) [3, 10]: 1920 min | Tmax (Geometric mean) [3, 10]: 2.75 h | Tmax (Max) [3, 10]: 6.00 h | Tmax (Mean) [3, 10]: 3.22 h | Tmax (Median) [3, 10]: 2.5 h | Tmax (Min) [3, 10]: 75 min | t1/2 (Geometric mean) [3, 10]: 8.429 h | t1/2 (Max) [3, 10]: 9.79 h | t1/2 (Mean) [3, 10]: 8.47 h | t1/2 (Median) [3, 10]: 8.32 h | t1/2 (Min) [3, 10]: 442 min | geometric mean AUClast, fold higher than in normal subjects ([3]; severe renal impairment vs normal renal function): more than 3.5 fold | AUC0→t (Geometric mean) [3, 11]: 2091 ng·h/mL | AUC0→t (Max) [3, 11]: 6242 ng·h/mL | AUC0→t (Mean) [3, 11]: 2733.6 ng·h/mL | AUC0→t (Median) [3, 11]: 1758 ng·h/mL | AUC0→t (Min) [3, 11]: 605.7 ng·h/mL | Clast (Geometric mean) [3, 11]: 41.3 ng/mL | Clast (Max) [3, 11]: 133.0 ng/mL | Clast (Mean) [3, 11]: 54.36 ng/mL | Clast (Median) [3, 11]: 35.7 ng/mL | Clast (Min) [3, 11]: 14.50 ng/mL | Cmax (Geometric mean) [3, 11]: 90.5 ng/mL | Cmax (Max) [3, 11]: 290.0 ng/mL | Cmax (Mean) [3, 11]: 120.4 ng/mL | Cmax (Median) [3, 11]: 75.8 ng/mL | Cmax (Min) [3, 11]: 23.7 ng/mL | Tlast (Geometric mean) [3, 11]: 32.0 h | Tlast (Max) [3, 11]: 32.0 h | Tlast (Mean) [3, 11]: 32.0 h | Tlast (Median) [3, 11]: 32.0 h | Tlast (Min) [3, 11]: 1920 min | Tmax (Geometric mean) [3, 11]: 6.13 h | Tmax (Max) [3, 11]: 12.0 h | Tmax (Mean) [3, 11]: 6.625 h | Tmax (Median) [3, 11]: 6.0 h | Tmax (Min) [3, 11]: 180 min | t1/2 (Geometric mean) [3, 11]: 24.65 h | t1/2 (Max) [3, 11]: 31.62 h | t1/2 (Mean) [3, 11]: 24.97 h | t1/2 (Median) [3, 11]: 24.0 h | t1/2 (Min) [3, 11]: 1191 min
